From US20100298434A1, “NEUROPROTECTION AND PREVENTION OF DOPAMINERGIC CELL DEATH BY TARGETING NUR77 TRANSLOCATION” (priority 2009, published 2010) come the findings set out here.

The test system of one data set is Nur77 mRNA. The experiment in a line: 6-hydroxydopamine lesions in rats, Nur77 mRNA in situ hybridization in substantia nigra. Particulars: intracerebral 6-OHDA 12 μg/3 μl. The format is in vivo. The method, then: (§1) Fifteen male Sprague—Dawley albino rats (Charles River, Montreal, Canada) weighing 250-275 g at the beginning of the experiment were used in this study. They were housed two per cage in a temperature-controlled environment maintained under a 12-h light/dark cycle with ad libitum access to food and water. Handling of the rats was performed in accordance with the Canadian Guide for the Care and Use of Laboratory animals and all procedures were approved by the Institutional Animal Care Committee of Laval University. All efforts were made to minimize the number of animals used and their suffering. Rats were anaesthetized in an induction chamber with 4% isoflurane in 95% O2/5% CO2 before being transferred to a stereotaxic frame and maintained at 1.5-3% isoflurane. A sagittal cut exposed bregma and a hole was drilled.
Cryostat-cut brain sections (12 μm) were mounted on Superfrost slides (Fisher Scientific, Toronto, ON, Canada) and stored at −80° C. Specific [^35S]UTP-labeled complementary.
RNA (cRNA) probes were used and preparation of the Nur77 probe was performed as described previously (Beaudry et al., 2000). The antisense cRNA probe for Nur77 stems from a 2.4-kb EcoRI fragment of a full-length rat Nur77 cDNA subcloned into pBluescript SK-1 and linearized with BamHI. […]

In data set [1] the test system is PC12 cells. The experiment in a line: LDH cytotoxicity in PC12 cells. Particulars: PC12 cells. The format is cell-based. The protocol: They were cultured on Primaria 6-well plates (BD Falcon, Ontario, Canada) for RT-PCR experiments and immunoblotting; on Primaria 96-wells plates for LDH cytoxicity experiments and finally on poly-L-lysine-coated circular glass coverslips for immunocytofluorescence assays. Cells were fed fresh medium every 3 days and maintained at 37° C. in a humidified 5% CO2 atmosphere. […] Control conditions were without toxin.
Briefly, media were collected and centrifuged at 800×g at 4° C. for 2 min. The cell-free supernatant (100 μl) was then used to determine LDH activity by measuring the absorbance at a wavelength of 490 nm (A490) on a microplate reader (Multiscan Ascent Microplate reader, Thermolab System, Franklin Mass.) according to the working procedures of Roche's protocol. Total cellular LDH was determined by lysing cells with 1% Triton X-100.

In data set [2] the test system is PC12 cells. Kind of data set: TUNEL/DAPI apoptosis in PC12 cells. The format is cell-based, rat. The following applies: 6-OHDA, at 12 and 24 h. The method, then:
(§2) PC12 cells were obtained from ATCC CRL 1721 (VA, USA) and were grown in phenol red-free RPMI 1640 medium supplemented with 5% fetal calf serum (FCS), 10% horse serum and gentamicin (50 μg/ml). They were cultured on Primaria 6-well plates (BD Falcon, Ontario, Canada) for RT-PCR experiments and immunoblotting; on Primaria 96-wells plates for LDH cytoxicity experiments and finally on poly-L-lysine-coated circular glass coverslips for immunocytofluorescence assays. Cells were fed fresh medium every 3 days and maintained at 37° C. in a humidified 5% CO2 atmosphere. […] Control conditions were without toxin. […] For the present study, kinetic time periods were: 0 h, 3 h, 6 h, 9 h, 12 h and 24 h. After each experiment, culture medium was harvested for cytotoxicity detection and cells were collected for RT-PCR and ICF/Fractioning (Gelinas & Martinoli 2002; Gagne et al. 2003; Gelinas et al. 2004; Chiasson et al. 2006).
PC12 cells were grown and treated on circular glass coverslips, then fixed in 4% paraformaldehyde for 1 hour at 4° C. […] Images were acquired with an Olympus IX-70 inverted microscope with a high-pressure mercury burner and necessary filter cubes (Olympus U-MNUV, U-MNIBA and U-MWIG), and were analyzed with Bio-Rad's QuantityOne software. […]

The test system of a further data set is Nur77. The experiment in a line: Nur77 subcellular distribution (nuclei-cytoplasmic fractioning, Western blot) in PC12 cells. It counts as cell-based, rat. Particulars: 6-OHDA 30 μM. The protocol: as §2
PC12 cells were grown and treated in 6-wells plates. We used a nuclear extraction kit (Active Motif, Carlsbad, Calif.) to separate cytoplasmic protein content from nuclear protein content. Briefly, cells were washed in wells with a mixture of PBS and phosphatase inhibitors, and then harvested in centrifuge tubes. Hypotonic buffer swelled cytoplasmic membrane, which an afterward mild detergent ruptured.
Centrifugation at 14,000×g pelleted the intact nuclei, and soluble material was preserved as the cytoplasmic fraction. Nuclei were the lysed with the provided lysis buffer. Protein dosage was performed with a bicinchoninic acid (BCA)-based SDS-compatible Protein Assay Kit (Pierce, Rockfort, Ill.) on each fraction of each sample.
Equal amounts of nuclei or cytoplasmic protein fractions were loaded onto a 10% polyacrylamide-SDS gel. After electrophoretic separation (180 volts, 45 min.) the polyacrylamide gels were transferred onto […] (PVDF) membranes (0.22 μm pore size, Bio-Rad) at 50 V for 2 h. The membranes were blocked with 5% non-fat powder milk for 1 h. […] Quantitative analysis was performed with the Fluor Chem SP software.

A further data set concerns substantia nigra neurons. Kind of data set: 6-hydroxydopamine lesions in rats, Fluoro-Jade B staining of degenerating neurons. The format is in vivo. The following applies: intracerebral 6-OHDA. The method, then:
as §1
The brain sections were mounted on gelatin-coated slides (Brain Research Laboratories, Newton, Mass.) and air-dried overnight. They were dehydrated in ascending grades of ethanol, hydrated in descending grades of ethanol and finally rinsed in milliQ water. Afterwards, the sections were dipped in a 0.06% potassium permanganate solution bath for 10 min and washed in milliQ water. […] Degenerating neurons and fibers appeared green and nuclei emerged blue in fluorescence.

For the molecule `NCCc1cc(O)c(O)cc1O` [6-OHDA, 6-hydroxydopamine], the “earliest time of Nur77 mRNA induction in midbrain dopaminergic neurons” value in the data set on Nur77 mRNA is reported as 3 h. Further, the “start of significant rise of cellular death (LDH activity)” value in the data set on PC12 cells [1] (10 μM 6-OHDA) is 12 h. This molecule also returned a cell death in the data set with PC12 cells [1] (6-OHDA 30 μM, after 24 h) of at most 70%. The “cells showing signs of apoptosis (co-localization of DAPI and TUNEL)” value in the data set on PC12 cells [2] is “more than 90%”. Besides, the “start of Nur77 upregulation and translocation from the nucleus to the cytosol” value in the data set with Nur77 stood at 9 h. Besides, in the data set with substantia nigra neurons, the “time at which Fluoro-Jade staining is also observed” value is recorded as 3 h and the “time of maximal Fluoro-Jade staining” value is 48 h.
